# Source: PubChem BioAssay (NCI)
#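 Tested at 5 concentrations; 48 h exposure; 96-well plates; endpoints linearly interpolated, else capped at highest concentration. GI50 marks 50% less growth. TGI is the concentration that stops growth completely.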 Where a SMILES comes first, the peptide text is derived from it. The star is where a group is joined. Cbz = O=C(OCc1ccccc1)*
# Tests used:
# Assay in all cases: NCI anticancer screen, dose series, 48 h
# CAKI-1 renal = tested on: CAKI-1 renal
# HS 578T breast = tested on: HS 578T breast
# DU-145 prostate = tested on: DU-145 prostate
# K-562 leukemia = tested on: K-562 leukemia
# 786-0 renal = tested on: 786-0 renal
# COLO 205 colon = tested on: COLO 205 colon
# CCRF-CEM leukemia = tested on: CCRF-CEM leukemia
# SNB-75 CNS = tested on: SNB-75 CNS
# SN12C renal = tested on: SN12C renal
# HCT-15 colon = tested on: HCT-15 colon
SMILES,TGI (CAKI-1 renal),TGI (HS 578T breast),TGI (DU-145 prostate),TGI (K-562 leukemia),TGI (786-0 renal),TGI (COLO 205 colon),TGI (CCRF-CEM leukemia),TGI (SNB-75 CNS),TGI (SN12C renal),TGI (HCT-15 colon),GI50 (CAKI-1 renal),GI50 (K-562 leukemia),GI50 (CCRF-CEM leukemia)
Cc1nc2cccc([N+](=O)[O-])c2n1CCCN(C)C,> 100 µM,> 100 µM,> 100 µM,> 100 µM,> 100 µM,> 100 µM,> 100 µM,> 100 µM,> 100 µM,> 100 µM,–,–,–
N=C(N)SCc1ccc(N=C=S)cc1,25.4 µM,42.1 µM,29.5 µM,44 µM,26.7 µM,28.2 µM,> 100 µM,21.9 µM,28.5 µM,24.6 µM,–,–,–
NC(N)=NS(=O)(=O)c1ccc(NC(=O)c2ccc3nc4ccccc4c(N)c3c2)cc1,> 100 µM,> 100 µM,> 100 µM,> 100 µM,> 100 µM,> 100 µM,> 100 µM,> 100 µM,> 100 µM,> 100 µM,–,–,–
COc1ccc(-c2cc(-c3ccccc3)nc3c2CC(=O)Nc2ccccc2-3)cc1OC,> 100 µM,–,> 100 µM,> 100 µM,> 100 µM,> 100 µM,> 100 µM,2.67 µM,> 100 µM,> 100 µM,–,–,–
CCc1c(C)c2ccc(OCC(=O)N=Nc3c(O)[nH]c4ccccc34)c(C)c2oc1=O,> 33.3 µM,–,–,> 33.3 µM,–,–,> 33.3 µM,–,–,–,> 33.3 µM,1.19 µM,1.34 µM
CC(C)(O)CCc1ccc(O)c2c(=O)c3c(O)c4c(cc3oc12)O[C@H]1OC=C[C@@]41O,< 0.0318 µM,41.6 µM,–,> 100 µM,> 64 µM,0.378 µM,> 100 µM,10.1 µM,> 100 µM,14.6 µM,–,–,–
CCCCc1c2c(nc3c1CC/C(=C\c1ccc([N+](=O)[O-])cc1)C3=O)CCCC2,–,–,–,6.88 µM,2.77 µM,6.63 µM,6.68 µM,20.6 µM,3.34 µM,1.16 µM,–,–,–
O=C1CCCC2=C1CC1=C(CCCC1=O)N2c1cccc([N+](=O)[O-])c1,> 100 µM,> 100 µM,–,> 100 µM,> 100 µM,–,> 100 µM,> 100 µM,> 100 µM,> 100 µM,–,–,–
Cc1nc2ccccc2n1Cc1nnc2n1N=C(c1ccccc1)CS2,> 100 µM,> 100 µM,> 100 µM,–,> 100 µM,> 100 µM,> 100 µM,59 µM,> 100 µM,> 100 µM,–,–,–
O=C1CSC(C(N=Nc2ccc(Cl)cc2)c2nc3ccccc3[nH]2)=N1 (stereo unspecified),> 100 µM,–,–,> 100 µM,–,> 100 µM,> 100 µM,90.2 µM,> 100 µM,> 100 µM,–,–,–
COc1ccc(/C=C2\CN(C)CC3C2=NN(c2ccccc2)C3c2ccc(OC)cc2)cc1 (stereo unspecified),> 100 µM,> 100 µM,> 100 µM,> 100 µM,> 100 µM,> 100 µM,> 100 µM,–,> 100 µM,> 100 µM,–,–,–
Cc1nnc([C@@]2(C)CC[C@H]3[C@@H](CCC4=CC(=O)CC[C@@]43C)[C@@H]2CC#N)o1,> 100 µM,> 100 µM,–,> 100 µM,> 100 µM,> 100 µM,> 100 µM,> 100 µM,> 100 µM,> 100 µM,–,–,–
CCOC(=O)CNC(=O)C(C)NC(=O)C(NC(=O)OCc1ccccc1)C(C)C (stereo not drawn) (Cbz-Val-Ala-Gly-OEt; configuration not given here),> 100 µM,> 100 µM,> 100 µM,> 100 µM,> 100 µM,> 100 µM,–,> 100 µM,> 100 µM,> 100 µM,–,–,–
CN(C)/C=C/c1c2c(nc3ccccc13)C(=O)c1ccccc1C2=O,6.31 µM,4.21 µM,2.69 µM,> 100 µM,5.51 µM,5.5 µM,3.36 µM,–,2.84 µM,2.71 µM,–,–,–
Nc1c2c(nc3ccccc13)CCCc1ccccc1-2,40.9 µM,52 µM,80.3 µM,> 100 µM,24.9 µM,24.4 µM,–,26.6 µM,39.5 µM,35.5 µM,–,–,–
Cc1ccc(S(=O)(=O)N2CCCSCCN(S(=O)(=O)c3ccc(C)cc3)CCCSCC2)cc1,–,> 100 µM,> 100 µM,> 100 µM,> 100 µM,> 100 µM,–,> 100 µM,> 100 µM,–,–,–,–
CC(C)[C@](O)(C(=O)OCC1=CCN2CC[C@@H](O)[C@@H]12)[C@H](C)O,> 375 µM,–,–,> 375 µM,–,> 375 µM,> 375 µM,> 375 µM,> 375 µM,> 375 µM,–,–,–
COc1cc2cc(C(=O)N3CC(CCl)c4c3cc(O)c3ccccc43)[nH]c2c(OC)c1OC (stereo unspecified),–,< 0.005 µM,> 50 µM,> 50 µM,0.506 µM,–,< 0.005 µM,< 0.005 µM,–,0.588 µM,–,–,–
O=P1(Oc2ccccc2)NCc2ncccc2O1 (stereo unspecified),> 100 µM,–,> 100 µM,> 100 µM,> 100 µM,> 100 µM,> 100 µM,> 100 µM,> 100 µM,> 100 µM,–,–,–
CCOC(=O)C1=C(C)NC(C)=C(C(=O)OCC)C1c1ccc(C)cc1,> 100 µM,> 100 µM,> 100 µM,> 100 µM,45.8 µM,–,–,> 100 µM,80.5 µM,> 100 µM,–,–,–
CC(=O)OCCOCCN1CCN(c2c(O)c3c(c(O)c2Cl)C(=O)C=CC3=O)CC1,0.878 µM,7.59 µM,3.29 µM,–,0.913 µM,0.68 µM,–,3.71 µM,1.77 µM,1.23 µM,–,–,–
CC(C)(SCc1ccccc1)C(N)C(=O)O (stereo unspecified),> 100 µM,–,> 100 µM,> 100 µM,> 100 µM,–,> 100 µM,> 100 µM,> 100 µM,> 100 µM,–,–,–
NC(=O)SCC(=O)Nc1ccc2ncccc2c1,> 100 µM,> 100 µM,–,> 100 µM,67.6 µM,> 100 µM,> 100 µM,–,> 100 µM,> 100 µM,–,–,–
CS/C=C\C(=O)O[C@H]1C[C@@H]2[C@@H](O)c3occ(C)c3C[C@]2(C)[C@@H](C)C1,> 100 µM,71.5 µM,90.3 µM,47 µM,30.2 µM,35.6 µM,> 100 µM,–,30.2 µM,95.1 µM,–,–,–
